Laboratory results: ChEMBL document CHEMBL1201862, “PubChem BioAssay data set” (2004)
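96-well plates; 48 h exposure; 5 concentrations. Endpoints by linear interpolation between flanking doses. Not reached: highest tested concentration assigned. GI50 = concentration required for 50% inhibition of growth.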 Calls of active or inactive are those of the source. Rule as the data show it: active = GI50 up to about 1.1 µM and inactive = higher. Where a SMILES comes first, the peptide text is derived from it. The star is where a group is joined. Boc = CC(C)(C)OC(=O)*

What was measured:
Assay in all cases: NCI-60 cell line screen, 48 h
ACHN = tested on: ACHN
CAKI-1 = tested on: CAKI-1
DU-145 = tested on: DU-145
HL-60 = tested on: HL-60
Hs-578T = tested on: Hs-578T
K562 = tested on: K562
KM12 = tested on: KM12
MDA-MB-231 = tested on: MDA-MB-231
NCI-H226 = tested on: NCI-H226
NCI-H460 = tested on: NCI-H460
NCI/ADR-RES = tested on: NCI/ADR-RES
OVCAR-8 = tested on: OVCAR-8
RPMI-8226 = tested on: RPMI-8226
SF-539 = tested on: SF-539
SK-MEL-28 = tested on: SK-MEL-28
SNB-75 = tested on: SNB-75
TK-10 = tested on: TK-10
UACC-62 = tested on: UACC-62
UO-31 = tested on: UO-31
A498 = tested on: A498

| Structure (SMILES) | GI50 (ACHN) | GI50 (CAKI-1) | GI50 (DU-145) | GI50 (HL-60) | GI50 (Hs-578T) | GI50 (K562) | GI50 (KM12) | GI50 (MDA-MB-231) | GI50 (NCI-H226) | GI50 (NCI-H460) | GI50 (NCI/ADR-RES) | GI50 (OVCAR-8) | GI50 (RPMI-8226) | GI50 (SF-539) | GI50 (SK-MEL-28) | GI50 (SNB-75) | GI50 (TK-10) | GI50 (UACC-62) | GI50 (UO-31) | GI50 (A498) |
| --- | --- | --- | --- | --- | --- | --- | --- | --- | --- | --- | --- | --- | --- | --- | --- | --- | --- | --- | --- | --- |
| CC(=O)N(C)CCc1c[nH]c2ccccc12 | > 100 µM (inactive) | > 100 µM (inactive) | > 100 µM (inactive) | > 100 µM (inactive) | > 100 µM (inactive) | > 100 µM (inactive) | > 100 µM (inactive) | > 100 µM (inactive) | > 100 µM (inactive) | > 100 µM (inactive) | > 100 µM (inactive) | > 100 µM (inactive) | > 100 µM (inactive) | > 100 µM (inactive) | > 100 µM (inactive) | > 100 µM (inactive) | > 100 µM (inactive) | > 100 µM (inactive) | > 100 µM (inactive) |  |
| OCC1OC(n2cnc3c(SCc4ccccc4)ncnc32)C(O)C1O (configuration not stated) | 4.24 µM (inactive) | 6.53 µM (inactive) | 5.35 µM (inactive) | 1.21 µM (inactive) |  | 3.15 µM (inactive) | > 100 µM (inactive) | 5.48 µM (inactive) | > 67.3 µM (inactive) | > 44.7 µM (inactive) | 10.2 µM (inactive) | 1.04 µM (active) | 19.4 µM (inactive) | > 100 µM (inactive) | > 100 µM (inactive) | > 100 µM (inactive) | > 21.8 µM (inactive) | 98.9 µM (inactive) | 23 µM (inactive) | 2.98 µM (inactive) |
| CCCCCCNC(=O)c1cc(NCc2cc(OC)ccc2OC)ccc1O | 32.8 µM (inactive) | 27.2 µM (inactive) | 24.2 µM (inactive) | 14.4 µM (inactive) | 28 µM (inactive) | 14.8 µM (inactive) | 24.8 µM (inactive) | 18.7 µM (inactive) | 20 µM (inactive) | 24.7 µM (inactive) | 16.9 µM (inactive) | 20.7 µM (inactive) | 12.2 µM (inactive) | 18.5 µM (inactive) | 31.8 µM (inactive) | 26.1 µM (inactive) | 42.6 µM (inactive) | 15 µM (inactive) | 17.7 µM (inactive) |  |
| O=C1C(NCCF)=C(Cl)C(=O)c2ncccc21 | 1.53 µM (inactive) |  | 1.11 µM (active) | 0.413 µM (active) | 1.77 µM (inactive) | 0.206 µM (active) | 1.54 µM (inactive) | 2.19 µM (inactive) | 1.71 µM (inactive) | 0.429 µM (active) |  | 0.8 µM (active) | 0.49 µM (active) | 1 µM (active) | 0.701 µM (active) | 0.617 µM (active) | 1.81 µM (inactive) | 0.247 µM (active) |  | 1.63 µM (inactive) |
| Cc1ccc(-c2nc(Cc3n[nH]c(-c4ccc(C)cc4)n3)n[nH]2)cc1 | 6.38 µM (inactive) |  | > 100 µM (inactive) |  |  | > 100 µM (inactive) | > 100 µM (inactive) | > 100 µM (inactive) |  |  | 29.6 µM (inactive) | 10.3 µM (inactive) | > 100 µM (inactive) | > 100 µM (inactive) | > 100 µM (inactive) | 3.2 µM (inactive) | > 100 µM (inactive) | 4.86 µM (inactive) | > 100 µM (inactive) |  |
| Cc1nn(C(=O)Cc2ccccc2)c2c1C(c1ccccc1[N+](=O)[O-])SC(=N)N2 (configuration not stated) | > 100 µM (inactive) | > 100 µM (inactive) | > 100 µM (inactive) | > 100 µM (inactive) | > 100 µM (inactive) | > 100 µM (inactive) | > 100 µM (inactive) | > 100 µM (inactive) | > 100 µM (inactive) | > 100 µM (inactive) |  | > 100 µM (inactive) | > 100 µM (inactive) | > 100 µM (inactive) | > 100 µM (inactive) | 83.4 µM (inactive) | > 100 µM (inactive) | > 100 µM (inactive) | > 100 µM (inactive) | > 100 µM (inactive) |
| COc1ccc(/C=C2\OC(=O)C(Cl)=C2c2ccc(OC)cc2)cc1 | > 100 µM (inactive) | > 100 µM (inactive) | > 100 µM (inactive) | > 100 µM (inactive) | > 100 µM (inactive) | > 100 µM (inactive) | > 100 µM (inactive) | > 100 µM (inactive) |  | > 100 µM (inactive) |  | 85.7 µM (inactive) | > 100 µM (inactive) | > 100 µM (inactive) | > 100 µM (inactive) | > 100 µM (inactive) | 84.5 µM (inactive) | > 100 µM (inactive) | > 100 µM (inactive) | > 100 µM (inactive) |
| Cc1cnc2sn(-c3ccc(Br)cc3)c(=O)c2c1 | 35.6 µM (inactive) | 16.7 µM (inactive) | 50.5 µM (inactive) | 18.3 µM (inactive) | 30.7 µM (inactive) |  | 74.8 µM (inactive) | 30.5 µM (inactive) | 52 µM (inactive) | 32.5 µM (inactive) | 70.1 µM (inactive) | 62.5 µM (inactive) | 33.2 µM (inactive) | 31.3 µM (inactive) | 27.7 µM (inactive) | 84.9 µM (inactive) | 93.5 µM (inactive) | 33.4 µM (inactive) | 43.9 µM (inactive) |  |
| O=C1CCc2cc3c(cc21)C(C(=O)O)CC3 (configuration not stated) | > 100 µM (inactive) | > 100 µM (inactive) | > 100 µM (inactive) | > 100 µM (inactive) | > 100 µM (inactive) | > 100 µM (inactive) | > 100 µM (inactive) | > 100 µM (inactive) | > 100 µM (inactive) | > 100 µM (inactive) | > 100 µM (inactive) | > 100 µM (inactive) | > 100 µM (inactive) | > 100 µM (inactive) | > 100 µM (inactive) | 87.5 µM (inactive) | > 100 µM (inactive) | > 100 µM (inactive) | > 100 µM (inactive) |  |
| C[C@@H]1S[C@H](c2c(F)cccc2Cl)n2c1nc1ccccc12 | 27.9 µM (inactive) | 8.43 µM (inactive) | 27.2 µM (inactive) |  | 20.6 µM (inactive) | 4.4 µM (inactive) | 5.53 µM (inactive) | 11.5 µM (inactive) | 19.9 µM (inactive) |  | 14.1 µM (inactive) | 19 µM (inactive) | 4.44 µM (inactive) | 15 µM (inactive) | 13.7 µM (inactive) | 16.5 µM (inactive) | 28.5 µM (inactive) | 8.81 µM (inactive) | 11.9 µM (inactive) |  |
| C[N+](C)(C)[BH-](Br)C(O)O (configuration not stated) | > 100 µM (inactive) | > 100 µM (inactive) | > 100 µM (inactive) | > 100 µM (inactive) | > 100 µM (inactive) | > 100 µM (inactive) | > 100 µM (inactive) | > 100 µM (inactive) |  | > 100 µM (inactive) | > 100 µM (inactive) |  |  | > 100 µM (inactive) | > 100 µM (inactive) | 40.6 µM (inactive) | > 100 µM (inactive) | > 100 µM (inactive) | > 100 µM (inactive) | > 100 µM (inactive) |
| COC(=O)C(Cc1c[nH]c2ccccc12)NC(=O)C(Cc1c[nH]c2ccccc12)NC(=O)C(Cc1c[nH]c2ccccc12)NC(=O)C(Cc1c[nH]c2ccccc12)NC(=O)C(Cc1c[nH]c2ccccc12)NC(=O)C(Cc1c[nH]c2ccccc12)NC(=O)C(Cc1c[nH]c2ccccc12)NC(=O)C(Cc1c[nH]c2ccccc12)NC(=O)OC(C)(C)C (configuration not stated) (Boc-WWWWWWWW-OMe; configuration not given here) | > 100 µM (inactive) | > 100 µM (inactive) | 35.5 µM (inactive) | 24.8 µM (inactive) |  | 31.8 µM (inactive) |  | > 100 µM (inactive) | 49.3 µM (inactive) | 67.6 µM (inactive) |  | > 100 µM (inactive) | 57.9 µM (inactive) |  | 33.3 µM (inactive) | > 100 µM (inactive) | 34 µM (inactive) | 28.5 µM (inactive) | 53.7 µM (inactive) | 20 µM (inactive) |
| CCOC(=O)c1c(NC(=O)c2ccccc2)c(C#N)c2n1CCCCC2 | > 100 µM (inactive) | > 100 µM (inactive) | > 100 µM (inactive) | > 100 µM (inactive) | > 100 µM (inactive) | > 100 µM (inactive) | > 100 µM (inactive) | > 100 µM (inactive) | > 100 µM (inactive) | > 100 µM (inactive) | > 100 µM (inactive) | > 100 µM (inactive) | > 100 µM (inactive) |  | > 100 µM (inactive) | > 100 µM (inactive) | > 100 µM (inactive) | > 100 µM (inactive) | > 100 µM (inactive) |  |
| O=C1OC(OCC#CCOC2OC(=O)C(Cl)=C2Cl)C(Cl)=C1Cl (configuration not stated) | 16.2 µM (inactive) |  | 18.6 µM (inactive) |  | 13.2 µM (inactive) |  | 18.9 µM (inactive) |  |  | 23.6 µM (inactive) | 19.5 µM (inactive) | 4.31 µM (inactive) | 3.57 µM (inactive) | 16.5 µM (inactive) | 15.3 µM (inactive) | 12.4 µM (inactive) | 9.16 µM (inactive) | 14.2 µM (inactive) | 11.6 µM (inactive) |  |
| c1ccc(C2(c3cc4ccccc4[nH]3)OCCO2)cc1 | 35.9 µM (inactive) | 86.1 µM (inactive) | 65.3 µM (inactive) |  |  | 22.2 µM (inactive) | 37.8 µM (inactive) | > 100 µM (inactive) | 36.6 µM (inactive) | 36.9 µM (inactive) | 67.6 µM (inactive) | 76.2 µM (inactive) | 27.3 µM (inactive) | > 100 µM (inactive) | 28.2 µM (inactive) | > 100 µM (inactive) | > 100 µM (inactive) | 38.8 µM (inactive) | 42.6 µM (inactive) | 37.2 µM (inactive) |
